Experimental data from ChEMBL document CHEMBL5291721, “A preclinical secondary pharmacology resource illuminates target-adverse drug reaction associations of marketed drugs” (Nat Commun, 2023).
*1 amine or outer side, *2 acyl side, *3 side chain or, on linkers, in order; H or OH if unused. Where a SMILES comes first, the peptide text is derived from it. Bridges are numbered along the chain shown (N, C = ends). [ ]: non-standard residue; d: D form. The star is where a group is joined. hTyr(3S-OH,4S-OH,3'-OSO3H) = N[C@H](C(=O)O)[C@H](O)[C@@H](O)c1ccc(O)c(OS(=O)(=O)O)c1; Orn(4R-OH,5R-OH) = O=C([C@H](C[C@@H](O)[C@@H](O)N[*:3])N[*:1])[*:2]; Pro(3S-OH,4S-Me) = C[C@H]1CN[C@H](C(=O)O)[C@H]1O; X1 = CCCCCOc1ccc(-c2cc(-c3ccc(C(=O)*)cc3)no2)cc1; Gln(3R-OH) = NC(=O)C[C@@H](O)[C@H](N)C(=O)O; Hyp = O=C(O)[C@@H]1C[C@@H](O)CN1

Tests used:
Adenosine receptor A3 = target: T1, Adenosine receptor A3 (Homo sapiens, UniProt P0DMS8)
T1 sequence (P0DMS8 whole entry): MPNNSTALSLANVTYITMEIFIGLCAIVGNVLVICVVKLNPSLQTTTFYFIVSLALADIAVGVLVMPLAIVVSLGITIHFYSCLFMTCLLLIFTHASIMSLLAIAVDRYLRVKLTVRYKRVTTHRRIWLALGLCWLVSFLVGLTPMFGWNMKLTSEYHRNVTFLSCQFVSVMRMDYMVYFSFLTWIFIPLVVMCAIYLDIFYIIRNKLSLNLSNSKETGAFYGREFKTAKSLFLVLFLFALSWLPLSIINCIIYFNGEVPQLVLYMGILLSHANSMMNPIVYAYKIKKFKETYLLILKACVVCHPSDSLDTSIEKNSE

[1] = target: Gamma-aminobutyric acid receptor subunit alpha-1 (Rattus norvegicus, UniProt P62813)
[2] = target: Voltage-dependent L-type calcium channel subunit alpha-1C (Rattus norvegicus, UniProt P22002); assay type: functional
[3] = target: T2, Cholecystokinin receptor type A (Homo sapiens, UniProt P32238)
T2 sequence (P32238 whole entry): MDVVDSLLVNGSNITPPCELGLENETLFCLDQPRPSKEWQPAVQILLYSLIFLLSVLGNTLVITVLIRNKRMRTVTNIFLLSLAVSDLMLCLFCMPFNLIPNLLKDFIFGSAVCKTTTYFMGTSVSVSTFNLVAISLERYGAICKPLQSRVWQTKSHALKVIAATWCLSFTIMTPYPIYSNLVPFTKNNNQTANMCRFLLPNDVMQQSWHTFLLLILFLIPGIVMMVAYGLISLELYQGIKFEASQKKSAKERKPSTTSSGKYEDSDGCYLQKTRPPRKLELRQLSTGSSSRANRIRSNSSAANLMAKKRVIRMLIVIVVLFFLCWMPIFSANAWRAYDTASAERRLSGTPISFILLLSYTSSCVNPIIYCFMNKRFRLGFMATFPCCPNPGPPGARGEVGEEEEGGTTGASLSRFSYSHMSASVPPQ

[4] = target: Sodium-dependent dopamine transporter (Homo sapiens, UniProt Q01959)
[5] = target: T3, Amine oxidase [flavin-containing] A (Homo sapiens, UniProt P21397); assay type: functional
T3 sequence (P21397 whole entry): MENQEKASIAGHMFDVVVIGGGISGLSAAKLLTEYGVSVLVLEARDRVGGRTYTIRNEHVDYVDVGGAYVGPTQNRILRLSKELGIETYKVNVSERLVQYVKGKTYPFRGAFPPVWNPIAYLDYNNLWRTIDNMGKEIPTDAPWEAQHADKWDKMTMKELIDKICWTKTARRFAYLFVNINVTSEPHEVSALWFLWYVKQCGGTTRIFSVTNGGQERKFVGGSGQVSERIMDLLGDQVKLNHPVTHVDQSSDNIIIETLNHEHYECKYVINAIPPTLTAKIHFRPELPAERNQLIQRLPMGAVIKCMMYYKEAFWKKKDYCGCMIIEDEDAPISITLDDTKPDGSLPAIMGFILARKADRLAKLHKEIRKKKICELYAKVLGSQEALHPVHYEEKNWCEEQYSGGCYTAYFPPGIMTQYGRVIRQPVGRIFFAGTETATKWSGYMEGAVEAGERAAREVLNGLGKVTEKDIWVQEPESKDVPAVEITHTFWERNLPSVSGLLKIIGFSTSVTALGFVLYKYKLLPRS

D(3) dopamine receptor = D(3) dopamine receptor (Homo sapiens, UniProt P35462)
Also: assay procedure not described here.

Chain of Gamma-aminobutyric acid receptor subunit alpha-1 (P62813 whole entry): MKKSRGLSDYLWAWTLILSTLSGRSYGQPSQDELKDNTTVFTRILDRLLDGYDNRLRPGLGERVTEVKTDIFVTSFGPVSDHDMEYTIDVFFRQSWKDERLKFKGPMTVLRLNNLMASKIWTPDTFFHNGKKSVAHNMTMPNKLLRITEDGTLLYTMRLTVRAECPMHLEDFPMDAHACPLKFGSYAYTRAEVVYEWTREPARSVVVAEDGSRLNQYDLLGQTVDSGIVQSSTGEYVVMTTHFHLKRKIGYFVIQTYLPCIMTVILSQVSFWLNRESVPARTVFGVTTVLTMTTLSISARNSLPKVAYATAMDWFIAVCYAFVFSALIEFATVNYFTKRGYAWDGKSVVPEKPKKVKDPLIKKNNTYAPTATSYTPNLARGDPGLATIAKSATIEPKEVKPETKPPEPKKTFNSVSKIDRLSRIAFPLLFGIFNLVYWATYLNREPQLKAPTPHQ
Chain of Sodium-dependent dopamine transporter (Q01959 whole entry): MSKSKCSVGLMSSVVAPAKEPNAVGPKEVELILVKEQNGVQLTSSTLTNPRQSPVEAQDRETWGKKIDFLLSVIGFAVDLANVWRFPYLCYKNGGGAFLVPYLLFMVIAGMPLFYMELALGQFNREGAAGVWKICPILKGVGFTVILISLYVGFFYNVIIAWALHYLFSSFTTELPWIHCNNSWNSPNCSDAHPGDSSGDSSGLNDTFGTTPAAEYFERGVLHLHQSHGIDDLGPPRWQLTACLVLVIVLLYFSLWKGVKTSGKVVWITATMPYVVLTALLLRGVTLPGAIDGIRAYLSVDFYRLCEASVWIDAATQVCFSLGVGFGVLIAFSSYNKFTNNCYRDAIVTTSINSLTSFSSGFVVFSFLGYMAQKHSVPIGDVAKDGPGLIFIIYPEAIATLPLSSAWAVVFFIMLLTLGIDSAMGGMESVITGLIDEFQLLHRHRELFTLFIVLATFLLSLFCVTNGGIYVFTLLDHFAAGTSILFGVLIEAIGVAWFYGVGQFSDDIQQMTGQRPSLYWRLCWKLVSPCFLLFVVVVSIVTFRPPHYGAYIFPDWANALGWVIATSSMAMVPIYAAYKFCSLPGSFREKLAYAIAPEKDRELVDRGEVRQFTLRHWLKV
Chain of D(3) dopamine receptor (P35462 whole entry): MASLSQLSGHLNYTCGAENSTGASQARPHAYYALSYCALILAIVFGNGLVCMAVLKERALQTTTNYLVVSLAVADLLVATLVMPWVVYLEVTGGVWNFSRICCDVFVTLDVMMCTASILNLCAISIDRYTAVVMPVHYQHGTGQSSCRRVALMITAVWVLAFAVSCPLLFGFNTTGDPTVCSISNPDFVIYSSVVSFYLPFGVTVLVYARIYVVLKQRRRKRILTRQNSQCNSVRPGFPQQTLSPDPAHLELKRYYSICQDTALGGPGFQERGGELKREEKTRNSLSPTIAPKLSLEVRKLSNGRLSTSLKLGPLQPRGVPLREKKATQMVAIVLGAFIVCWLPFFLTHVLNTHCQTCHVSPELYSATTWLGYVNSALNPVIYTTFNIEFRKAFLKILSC
Chain of Voltage-dependent L-type calcium channel subunit alpha-1C (P22002 whole entry): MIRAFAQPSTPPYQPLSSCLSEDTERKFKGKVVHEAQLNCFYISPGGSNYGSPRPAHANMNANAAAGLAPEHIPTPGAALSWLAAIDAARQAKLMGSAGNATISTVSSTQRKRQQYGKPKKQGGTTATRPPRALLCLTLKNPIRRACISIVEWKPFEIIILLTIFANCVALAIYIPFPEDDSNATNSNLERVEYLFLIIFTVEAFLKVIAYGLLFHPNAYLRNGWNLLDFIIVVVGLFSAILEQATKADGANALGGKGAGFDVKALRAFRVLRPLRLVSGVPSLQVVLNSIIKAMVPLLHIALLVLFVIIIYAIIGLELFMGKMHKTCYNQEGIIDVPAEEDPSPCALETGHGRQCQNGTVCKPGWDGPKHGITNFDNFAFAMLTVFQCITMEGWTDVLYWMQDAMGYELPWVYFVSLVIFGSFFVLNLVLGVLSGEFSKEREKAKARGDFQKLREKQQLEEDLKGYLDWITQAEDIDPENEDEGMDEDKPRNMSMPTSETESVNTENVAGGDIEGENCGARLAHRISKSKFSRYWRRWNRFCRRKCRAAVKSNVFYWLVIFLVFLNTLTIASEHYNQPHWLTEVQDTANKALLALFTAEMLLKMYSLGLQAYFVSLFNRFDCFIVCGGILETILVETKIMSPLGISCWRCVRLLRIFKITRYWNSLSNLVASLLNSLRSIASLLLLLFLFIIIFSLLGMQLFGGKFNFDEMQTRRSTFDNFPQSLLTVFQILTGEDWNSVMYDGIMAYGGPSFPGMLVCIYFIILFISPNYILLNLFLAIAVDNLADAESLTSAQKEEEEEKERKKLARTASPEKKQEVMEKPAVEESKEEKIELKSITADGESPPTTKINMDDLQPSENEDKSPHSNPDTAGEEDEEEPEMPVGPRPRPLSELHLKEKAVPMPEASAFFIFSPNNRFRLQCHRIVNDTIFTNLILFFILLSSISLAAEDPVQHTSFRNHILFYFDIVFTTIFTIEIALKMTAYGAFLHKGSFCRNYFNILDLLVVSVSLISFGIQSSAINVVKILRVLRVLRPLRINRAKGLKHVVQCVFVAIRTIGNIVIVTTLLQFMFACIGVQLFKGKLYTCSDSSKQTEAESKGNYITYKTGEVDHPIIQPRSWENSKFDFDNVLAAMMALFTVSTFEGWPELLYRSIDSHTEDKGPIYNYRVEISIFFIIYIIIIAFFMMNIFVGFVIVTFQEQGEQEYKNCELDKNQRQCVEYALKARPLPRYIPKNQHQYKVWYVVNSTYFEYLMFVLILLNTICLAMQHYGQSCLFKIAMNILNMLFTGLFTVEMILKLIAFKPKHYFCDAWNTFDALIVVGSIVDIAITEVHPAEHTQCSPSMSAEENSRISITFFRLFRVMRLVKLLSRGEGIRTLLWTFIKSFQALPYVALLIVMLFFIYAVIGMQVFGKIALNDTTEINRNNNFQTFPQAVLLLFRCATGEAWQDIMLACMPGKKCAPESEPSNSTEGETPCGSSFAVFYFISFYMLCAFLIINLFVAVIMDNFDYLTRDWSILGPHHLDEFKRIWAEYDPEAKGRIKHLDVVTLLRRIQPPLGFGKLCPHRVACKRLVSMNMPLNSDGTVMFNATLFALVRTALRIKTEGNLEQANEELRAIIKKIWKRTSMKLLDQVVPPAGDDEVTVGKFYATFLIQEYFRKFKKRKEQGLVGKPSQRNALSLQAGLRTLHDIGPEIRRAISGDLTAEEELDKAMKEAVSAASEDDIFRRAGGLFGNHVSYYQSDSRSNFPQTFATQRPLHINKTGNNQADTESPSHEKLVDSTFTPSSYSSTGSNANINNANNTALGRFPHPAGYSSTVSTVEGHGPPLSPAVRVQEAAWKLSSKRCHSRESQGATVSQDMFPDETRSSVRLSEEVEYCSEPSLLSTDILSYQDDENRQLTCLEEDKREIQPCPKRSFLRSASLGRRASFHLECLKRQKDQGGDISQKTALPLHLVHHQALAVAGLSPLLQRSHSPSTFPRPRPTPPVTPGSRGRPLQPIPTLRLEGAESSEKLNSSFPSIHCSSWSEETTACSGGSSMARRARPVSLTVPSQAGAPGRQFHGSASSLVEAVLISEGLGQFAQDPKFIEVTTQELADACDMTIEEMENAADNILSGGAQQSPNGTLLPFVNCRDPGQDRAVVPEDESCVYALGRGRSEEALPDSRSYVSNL

Row | SMILES | AC50 (Adenosine receptor A3) [µM] | AC50 [1] [µM] | AC50 [2] [µM] | AC50 [3] [µM] | AC50 [4] [µM] | AC50 [5] [µM] | AC50 (D(3) dopamine receptor) [µM]
1 | CN1CCC[C@@H]1Cc1c[nH]c2ccc(CCS(=O)(=O)c3ccccc3)cc12 | > 30 | > 30 | – | – | – | – | –
2 | CC(C)COc1ccc(CNC(=O)N(Cc2ccc(F)cc2)C2CCN(C)CC2)cc1 [PIMAVANSERIN] | > 30 | > 30 | – | – | – | – | –
3 | CNC[C@H](O)c1cccc(O)c1 [PHENYLEPHRINE] | > 30 | > 30 | > 10 | > 30 | > 10 | > 10 | 4.1
4 | CCCCCOc1ccc(-c2cc(-c3ccc(C(=O)N[C@H]4C[C@@H](O)[C@@H](O)NC(=O)[C@@H]5[C@@H](O)[C@@H](C)CN5C(=O)[C@H]([C@H](O)CC(N)=O)NC(=O)[C@H]([C@H](O)[C@@H](O)c5ccc(O)c(OS(=O)(=O)O)c5)NC(=O)[C@@H]5C[C@@H](O)CN5C(=O)[C@H]([C@@H](C)O)NC4=O)cc3)no2)cc1 [MICAFUNGIN] (X1-[Orn(4R-OH,5R-OH)]T[Hyp][hTyr(3S-OH,4S-OH,3'-OSO3H)][Gln(3R-OH)][Pro(3S-OH,4S-Me)]; lactam 1-C) | 11.4 | > 30 | – | – | – | – | –
5 | NCCc1ccc(O)cc1 [TYRAMINE] | > 30 | > 30 | – | – | – | – | –
6 | C[C@]12CC[C@@H]3c4ccc(O)cc4CC[C@H]3[C@@H]1CC[C@@H]2OC(=O)CCC1CCCC1 [ESTRADIOL CYPIONATE] | 9.98 | > 30 | – | – | – | – | –
